A short description of data set [1]: physchem. The class given is physicochemical. Here is the method:
The solubility assay was based on the addition of an excess of the drug to different solutions with increasing concentrations of two different cyclodextrins, 2-hydroxypropyl-β-cyclodextrin (HPβCD) or 2-hydroxypropyl-ɣ-cyclodextrin (HPγCD). […] Afterwards, the resultant solutions were centrifugated (Eppendorf® Centrifuge 5804R) at 12,000 rpm for 30 min and 25 °C. […] Each measurement was performed in triplicate.

The nature of data set [2]: Particle size of cyclodextrin/drug aggregates by TEM. The data set is classed as physicochemical. Here is the method:
Samples were placed on copper grids and stained with 2% (w/v) phosphotungstic acid. Samples were dried and evaluated by TEM observation using an accelerating voltage of 200 kV.
Particle size was measured using Image-Pro Plus Image Analysis Software Version 6.0.0.260 (Media Cybernetics, Inc., Rockville, MD, USA).

≈ marks a conversion by molar mass, not a printed value.

`C[C@@H]1C/C=C/C=C/C=C/C=C/[C@H](O[C@@H]2O[C@H](C)[C@@H](O)[C@H](N)[C@@H]2O)C[C@@H]2O[C@](O)(C[C@@H](O)C[C@H]3O[C@@H]3/C=C/C(=O)O1)C[C@H](O)[C@H]2C(=O)O` [Natamycin] displayed a solubility at 7 days in data set [1] of 35.3 ± 14 µg/mL (≈ 53 µM). In addition, the “average particle size (TEM)” value is 80.25 ± 35.81 nm in data set [2] (saturated solution of natamycin in 40% (w/v) HPβCD) and 148.96 ± 32.89 nm in data set [2] (saturated solution of natamycin in 40% (w/v) HPβCD with 1% (w/v) voriconazole).

As usually defined, the solubility is the concentration that dissolves in the medium under given conditions. A low value points to little dissolved substance.

The record behind these values is PMC9866460, “Antifungal Combination Eye Drops for Fungal Keratitis Treatment” (Pharmaceutics, 2022).
